From patent publication US20120010075A1 (priority 2009, published 2012) come the findings set out here.

Holding throughout (type): cell-based
Assay [1] has as its system Leptosphaeria nodorum (LEPTNO). The assay is described as follows: Isolated metal-hydrazone complexes versus parent hydrazones, in vitro, Leptosphaeria nodorum (Example 31, Table 7). The following applies: Parastagonospora nodorum; 0.1 μg/mL; copper-minus medium; 72 h.
For assay [2], the system named is Leptosphaeria nodorum (LEPTNO). In words: In vitro fungitoxicity of hydrazones with and without copper towards Leptosphaeria nodorum (Example 26). The following applies: compound 0.05 μg/mL, 72 h at 25° C.
For another assay, the system named is Ustilago maydis. In words: In vitro fungitoxicity of hydrazones with and without copper towards Ustilago maydis (Example 29, Table 4). Particulars: 1 μg/mL, 48 h.

As for `O=C(N/N=C/c1cc(Cl)cc(Cl)c1O)c1ccccc1` [Example 16], in assay [1], the inhibition at 0.1 µg/mL was determined as 19.9%. In addition, the inhibition of growth at 0.05 µg/mL in assay [2] (Parastagonospora nodorum, 72 h, copper-minus medium, read-out: LEPTNO % Inhn. Minus Copper Observed) is 0%. For the same compound, in assay [2] (copper-plus medium (CuCl2.2H2O)), the “LEPTNO % Inhn. Plus Copper Observed” value is 97.1%. Moreover, in the assay on Ustilago maydis (copper-plus medium (CuCl2, 10 μM)), the “% Inhn. Plus copper Observed” value was determined as 80.0%. In addition, the inhibition of growth at 1 µg/mL in the assay on Ustilago maydis (Mycosarcoma maydis, copper-minus medium, read-out: % Inhn. Minus copper Observed) was determined as 0%.
